The results in this text go back to patent publication US12516056B2, “Compounds for inhibition of janus kinase 1” (MANKIND PHARMA LTD., priority 2019, dated 2026).

Assay [1] addresses T1, Recombinant JAK2 (Homo sapiens, UniProt O60674).
T1 construct: purchased Carna Biosciences
Kind of assay: JAK biochemical assay (LANCE Ultra TR-FRET), JAK2. To be noted: recombinant JAK2, TR-FRET; read-out: Biochemical Assay (μM) JAK2. Here is the method: (§1) Recombinant JAK1, JAK2, JAK3 and TYK2 (Carna Biosciences) were used to develop biochemical assays in 50 mM HEPES pH 7.5, 1 mM EGTA, 10 mM MgCl2, 2 mM DTT and 0.01% Tween-20. […] The intensity of the light emission is proportional to the level of ULight substrate phosphorylation. Compounds which interfere with JAK enzyme activity show a lesser substrate phosphorylation and values are projected in terms of % inhibition in comparison to vehicle control.
(Time-resolved FRET reads energy transfer from a long-lived donor to a nearby acceptor.)

In assay [2] the target is T2, Recombinant TYK2 (Homo sapiens, UniProt P29597).
T2 construct: purchased Carna Biosciences
T2 sequence (P29597 whole entry): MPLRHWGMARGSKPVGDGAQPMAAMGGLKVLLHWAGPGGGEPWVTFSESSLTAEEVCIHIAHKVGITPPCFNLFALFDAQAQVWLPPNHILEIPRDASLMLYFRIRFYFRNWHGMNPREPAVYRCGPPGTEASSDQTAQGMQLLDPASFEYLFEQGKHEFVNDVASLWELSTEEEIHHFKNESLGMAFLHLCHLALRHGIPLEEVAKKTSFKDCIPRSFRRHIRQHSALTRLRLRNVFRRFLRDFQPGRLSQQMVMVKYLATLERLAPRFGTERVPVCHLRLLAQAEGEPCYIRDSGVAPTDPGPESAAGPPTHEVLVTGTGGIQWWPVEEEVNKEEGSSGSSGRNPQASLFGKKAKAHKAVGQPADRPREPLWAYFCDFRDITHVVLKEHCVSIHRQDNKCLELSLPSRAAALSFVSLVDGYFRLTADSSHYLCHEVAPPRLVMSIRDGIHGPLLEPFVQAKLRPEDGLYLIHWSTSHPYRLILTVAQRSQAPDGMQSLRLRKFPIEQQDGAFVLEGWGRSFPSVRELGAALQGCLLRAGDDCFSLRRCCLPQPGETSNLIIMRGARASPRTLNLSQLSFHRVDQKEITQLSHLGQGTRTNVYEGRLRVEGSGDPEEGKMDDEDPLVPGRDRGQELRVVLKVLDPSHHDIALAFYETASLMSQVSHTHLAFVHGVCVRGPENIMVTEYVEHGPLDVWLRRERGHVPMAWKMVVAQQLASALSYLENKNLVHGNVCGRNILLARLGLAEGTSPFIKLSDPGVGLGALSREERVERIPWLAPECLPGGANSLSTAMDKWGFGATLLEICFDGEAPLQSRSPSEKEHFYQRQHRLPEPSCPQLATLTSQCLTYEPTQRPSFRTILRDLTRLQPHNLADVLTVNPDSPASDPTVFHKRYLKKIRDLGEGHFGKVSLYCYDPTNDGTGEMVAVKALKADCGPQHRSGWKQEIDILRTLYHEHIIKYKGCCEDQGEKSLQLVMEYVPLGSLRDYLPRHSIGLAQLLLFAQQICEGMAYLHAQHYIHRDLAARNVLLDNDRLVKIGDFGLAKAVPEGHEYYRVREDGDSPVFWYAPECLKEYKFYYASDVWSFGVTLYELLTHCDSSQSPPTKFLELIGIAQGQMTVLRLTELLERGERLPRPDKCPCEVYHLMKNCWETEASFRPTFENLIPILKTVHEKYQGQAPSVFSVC
Description: JAK biochemical assay (LANCE Ultra TR-FRET), TYK2. To be noted: recombinant TYK2, TR-FRET; read-out: Biochemical Assay (μM) TYK2. The procedure: as §1

Assay [3] deals with T3, Recombinant JAK1 (Homo sapiens, UniProt P23458).
T3 construct: purchased Carna Biosciences
T3 sequence (P23458 whole entry): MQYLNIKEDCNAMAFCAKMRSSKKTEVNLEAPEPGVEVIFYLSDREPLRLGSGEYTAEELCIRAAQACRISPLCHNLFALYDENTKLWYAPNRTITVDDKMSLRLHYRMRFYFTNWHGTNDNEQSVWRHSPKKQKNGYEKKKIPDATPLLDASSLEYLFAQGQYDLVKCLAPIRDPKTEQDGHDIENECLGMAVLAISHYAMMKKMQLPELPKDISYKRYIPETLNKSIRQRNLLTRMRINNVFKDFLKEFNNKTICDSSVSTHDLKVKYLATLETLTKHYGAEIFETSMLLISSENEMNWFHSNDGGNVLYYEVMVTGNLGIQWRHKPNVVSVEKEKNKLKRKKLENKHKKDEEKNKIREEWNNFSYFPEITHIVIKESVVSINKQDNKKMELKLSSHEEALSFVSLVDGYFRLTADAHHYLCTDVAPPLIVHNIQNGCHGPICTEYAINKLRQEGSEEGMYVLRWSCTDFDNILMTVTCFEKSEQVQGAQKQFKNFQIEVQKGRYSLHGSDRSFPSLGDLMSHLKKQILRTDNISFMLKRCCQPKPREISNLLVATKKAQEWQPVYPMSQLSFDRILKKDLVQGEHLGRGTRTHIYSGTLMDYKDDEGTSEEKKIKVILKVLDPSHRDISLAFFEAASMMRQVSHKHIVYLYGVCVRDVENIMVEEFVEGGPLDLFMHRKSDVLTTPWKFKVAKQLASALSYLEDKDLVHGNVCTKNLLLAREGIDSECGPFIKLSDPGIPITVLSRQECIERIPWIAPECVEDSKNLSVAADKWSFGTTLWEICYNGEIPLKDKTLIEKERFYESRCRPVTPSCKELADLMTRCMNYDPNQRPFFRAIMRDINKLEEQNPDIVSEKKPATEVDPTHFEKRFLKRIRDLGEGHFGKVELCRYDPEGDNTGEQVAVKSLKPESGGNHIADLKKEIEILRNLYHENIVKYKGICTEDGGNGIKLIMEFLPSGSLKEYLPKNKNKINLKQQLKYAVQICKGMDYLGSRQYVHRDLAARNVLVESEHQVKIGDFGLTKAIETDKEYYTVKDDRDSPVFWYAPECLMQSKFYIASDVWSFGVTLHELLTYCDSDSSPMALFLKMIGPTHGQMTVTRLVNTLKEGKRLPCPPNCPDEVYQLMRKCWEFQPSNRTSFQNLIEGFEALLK
Description: JAK biochemical assay (LANCE Ultra TR-FRET), JAK1. To be noted: recombinant JAK1, TR-FRET; read-out: Biochemical Assay (μM) JAK1. The procedure:
as §1

Assay [4] deals with T4, Recombinant JAK3 (Homo sapiens, UniProt P52333).
T4 construct: purchased Carna Biosciences
T4 sequence (P52333 1-1124): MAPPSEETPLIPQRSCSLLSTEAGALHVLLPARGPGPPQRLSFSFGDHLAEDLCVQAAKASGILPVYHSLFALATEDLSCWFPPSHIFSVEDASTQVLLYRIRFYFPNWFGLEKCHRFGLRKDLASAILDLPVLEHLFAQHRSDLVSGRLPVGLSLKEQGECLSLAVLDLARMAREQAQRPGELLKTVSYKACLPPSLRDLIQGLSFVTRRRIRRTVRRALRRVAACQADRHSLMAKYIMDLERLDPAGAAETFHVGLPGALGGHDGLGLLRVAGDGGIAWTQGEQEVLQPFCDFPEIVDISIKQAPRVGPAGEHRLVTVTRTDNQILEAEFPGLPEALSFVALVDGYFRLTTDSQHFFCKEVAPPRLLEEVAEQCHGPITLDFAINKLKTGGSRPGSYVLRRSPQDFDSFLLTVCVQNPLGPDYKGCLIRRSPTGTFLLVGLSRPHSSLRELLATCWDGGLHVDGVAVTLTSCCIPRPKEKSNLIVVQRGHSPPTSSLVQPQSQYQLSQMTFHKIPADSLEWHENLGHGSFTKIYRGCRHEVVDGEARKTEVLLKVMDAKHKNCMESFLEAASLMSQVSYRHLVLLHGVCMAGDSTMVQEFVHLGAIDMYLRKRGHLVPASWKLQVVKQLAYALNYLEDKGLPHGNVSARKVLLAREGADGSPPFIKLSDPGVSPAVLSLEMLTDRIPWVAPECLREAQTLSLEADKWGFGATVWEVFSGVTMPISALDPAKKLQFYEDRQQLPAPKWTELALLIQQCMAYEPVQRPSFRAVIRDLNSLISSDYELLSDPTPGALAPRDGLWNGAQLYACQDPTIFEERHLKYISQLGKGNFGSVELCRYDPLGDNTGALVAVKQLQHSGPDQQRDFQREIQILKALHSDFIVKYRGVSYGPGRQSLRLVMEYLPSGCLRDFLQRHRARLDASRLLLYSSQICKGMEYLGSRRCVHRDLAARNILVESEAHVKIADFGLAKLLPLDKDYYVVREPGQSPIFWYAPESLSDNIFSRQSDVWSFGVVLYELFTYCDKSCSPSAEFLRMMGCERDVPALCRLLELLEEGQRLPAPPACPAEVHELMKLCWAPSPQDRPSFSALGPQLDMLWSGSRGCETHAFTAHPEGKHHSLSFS
Kind of assay: JAK biochemical assay (LANCE Ultra TR-FRET), JAK3. The following applies: recombinant JAK3, TR-FRET; read-out: Biochemical Assay (μM) JAK3. Here is the method: as §1

Some results are limits rather than exact numbers.

T1 sequence (O60674 whole entry): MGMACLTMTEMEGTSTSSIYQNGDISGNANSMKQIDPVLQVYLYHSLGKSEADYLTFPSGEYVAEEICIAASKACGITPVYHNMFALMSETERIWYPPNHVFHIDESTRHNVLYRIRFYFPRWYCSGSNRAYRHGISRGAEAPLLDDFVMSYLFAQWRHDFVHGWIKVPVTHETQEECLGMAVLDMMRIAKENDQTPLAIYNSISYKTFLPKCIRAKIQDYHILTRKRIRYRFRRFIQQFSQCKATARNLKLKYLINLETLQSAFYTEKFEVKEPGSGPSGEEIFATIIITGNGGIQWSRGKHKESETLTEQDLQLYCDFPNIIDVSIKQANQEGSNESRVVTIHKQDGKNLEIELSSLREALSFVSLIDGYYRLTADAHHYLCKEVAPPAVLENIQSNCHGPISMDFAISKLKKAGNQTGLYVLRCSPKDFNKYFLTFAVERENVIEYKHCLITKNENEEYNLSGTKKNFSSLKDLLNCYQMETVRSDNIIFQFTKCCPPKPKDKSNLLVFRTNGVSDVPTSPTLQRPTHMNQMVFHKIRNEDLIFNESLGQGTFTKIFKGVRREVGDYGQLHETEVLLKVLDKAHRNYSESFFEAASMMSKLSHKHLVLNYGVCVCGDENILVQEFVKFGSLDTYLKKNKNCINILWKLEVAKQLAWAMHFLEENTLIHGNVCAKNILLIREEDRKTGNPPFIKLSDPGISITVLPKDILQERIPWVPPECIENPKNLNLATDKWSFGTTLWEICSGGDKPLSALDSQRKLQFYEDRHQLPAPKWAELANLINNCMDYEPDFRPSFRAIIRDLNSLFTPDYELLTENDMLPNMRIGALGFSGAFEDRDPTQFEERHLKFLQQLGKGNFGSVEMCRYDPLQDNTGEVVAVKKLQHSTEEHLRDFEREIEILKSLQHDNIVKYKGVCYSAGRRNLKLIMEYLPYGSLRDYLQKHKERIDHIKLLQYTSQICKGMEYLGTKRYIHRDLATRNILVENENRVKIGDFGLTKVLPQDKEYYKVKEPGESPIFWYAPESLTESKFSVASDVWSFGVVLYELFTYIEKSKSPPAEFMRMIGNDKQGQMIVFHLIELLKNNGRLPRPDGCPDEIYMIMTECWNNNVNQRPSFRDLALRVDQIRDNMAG

`N#CC(NC(=O)n1cc(-c2ccnc3[nH]c(=O)[nH]c23)cn1)c1ccccc1` (centres unmarked) [Example 1063, N-(cyano(phenyl)methyl)-4-(2,3-dihydro-2-oxo-1H-imidazo[4,5-b]pyridin-7-yl)-1H-pyrazole-1-carboxamide]: the IC50 in assay [1] is less than 0.5 µM; in assay [2] it was less than 0.5 µM; in assay [3], greater than 0.5 µM; in assay [4] it was greater than 0.5 µM.
Take `N#CCC(=O)NCc1ccc(-n2cc(-c3ccnc4[nH]cnc34)cn2)nc1` [Example 1091, N-((6-(4-(3H-imidazo[4,5-b]pyridin-7-yl)-1H-pyrazol-1-yl)pyridin-3-yl)methyl)-2-cyanoacetamide]: the IC50 in assay [1] is greater than 1 µM; in assay [2], greater than 10 µM; in assay [3], greater than 0.5 µM; in assay [4], greater than 0.5 µM.
With `COc1cc(-c2nc3c(-c4cnn(C5COCCC5C#N)c4)ccnc3[nH]2)ccc1Cl` (centres unmarked) [Example 1097, 3-(4-(2-(4-chloro-3-methoxyphenyl)-3H-imidazo[4,5-b]pyridin-7-yl)-1H-pyrazol-1-yl)-tetrahydro-2H-pyran-4-carbonitrile], the IC50 in assay [1] is greater than 0.5 µM; in assay [2], greater than 1 µM; in assay [3], greater than 10 µM; in assay [4], greater than 10 µM.
Take `CS(=O)(=O)CC(Cc1ccc(-n2cc(-c3ccnc4[nH]cnc34)cn2)nc1)C(F)(F)F` (centres unmarked) [Example 1194, 7-(1-(5-(3,3,3-trifluoro-2-((methylsulfonyl)methyl)propyl)pyridin-2-yl)-1H-pyrazol-4-yl)-3H-imidazo[4,5-b]pyridine]: the IC50 in assay [1] was greater than 0.5 µM; in assay [2] it was greater than 1 µM; in assay [3], greater than 0.5 µM; in assay [4], greater than 0.5 µM.
Regarding `CS(=O)(=O)CCC(c1ccc(-n2cc(-c3ccnc4[nH]cnc34)cn2)nc1)C1COC1` (centres unmarked) [Example 1160, 7-(1-(5-(3-(methylsulfonyl)-1-(oxetan-3-yl)propyl)pyridin-2-yl)-1H-pyrazol-4-yl)-3H-imidazo[4,5-b]pyridine], the IC50 in assay [1] is greater than 0.5 µM; in assay [2], greater than 1 µM; in assay [3], greater than 0.1 µM; in assay [4] it was greater than 0.5 µM.
As for `CCCS(=O)(=O)NC1CCN(C(=O)n2cc(-c3ccnc4[nH]cnc34)cn2)C1` (centres unmarked) [Example 1069, N-(1-(4-(3H-imidazo[4,5-b]pyridin-7-yl)-1H-pyrazole-1-carbonyl)pyrrolidin-3-yl)propane-1-sulfonamide], the IC50 in assay [1] is greater than 1 µM; in assay [2], greater than 1 µM; in assay [3] it was greater than 10 µM; in assay [4], greater than 0.5 µM.
For the compound `O=S(=O)(CCC(c1ccc(-n2cc(-c3ccnc4[nH]cnc34)cn2)nc1)C(F)(F)F)CC1CC1` (centres unmarked) [Example 1204, 7-(1-(5-(4-(cyclopropylmethylsulfonyl)-1,1,1-trifluorobutan-2-yl)pyridin-2-yl)-1H-pyrazol-4-yl)-3H-imidazo[4,5-b]pyridine], the IC50 in assay [1] is less than 0.1 µM; in assay [2], greater than 1 µM; in assay [3], less than 0.1 µM; in assay [4], less than 0.1 µM.
In the case of `CS(=O)(=O)CCC(c1ccnc(-n2cc(-c3ccnc4[nH]cnc34)cn2)c1)C(F)(F)F` (centres unmarked) [Example 1176, 7-(1-(4-(1,1,1-trifluoro-4-(methylsulfonyl)butan-2-yl)pyridin-2-yl)-1H-pyrazol-4-yl)-3H-imidazo[4,5-b]pyridine], the IC50 in assay [1], in assay [2], in assay [3] and in assay [4] was greater than 1 µM in each case.
Turning to `Cn1c(=O)[nH]c2nccc(-c3cnn(C(=O)NCC(F)(F)F)c3)c21` [Example 1029, N-(2,2,2-trifluoroethyl)-4-(2,3-dihydro-1-methyl-2-oxo-1H-imidazo[4,5-b]pyridin-7-yl)-1H-pyrazole-1-carboxamide], the IC50 in assay [1], in assay [2], in assay [3] and in assay [4] was greater than 10 µM throughout.
`CCn1c(=O)[nH]c2nccc(-c3cnn(C(=O)NCC(F)(F)F)c3)c21` [Example 1042, 4-(1-ethyl-2,3-dihydro-2-oxo-1H-imidazo[4,5-b]pyridin-7-yl)-N-(2,2,2-trifluoroethyl)-1H-pyrazole-1-carboxamide]: the IC50 was greater than 1 µM in assay [1], greater than 10 µM in assay [2], greater than 10 µM in assay [3] and greater than 10 µM in assay [4].
As for `O=C(CN1CCN(c2ccnc3[nH]c(=O)[nH]c23)CC1)NCC(F)(F)F` [Example 1025, N-(2,2,2-trifluoroethyl)-2-(4-(2,3-dihydro-2-oxo-1H-imidazo[4,5-b]pyridin-7-yl)piperazin-1-yl)acetamide], the IC50 in assay [1], in assay [2], in assay [3] and in assay [4] was greater than 10 µM throughout.
Regarding `O=S(=O)(CC1CC1)CC(c1ccc(-n2cc(-c3ccnc4[nH]cnc34)cn2)nc1)C(F)(F)F` (centres unmarked) [Example 1205, 7-(1-(5-(3-(cyclopropylmethylsulfonyl)-1,1,1-trifluoropropan-2-yl)pyridin-2-yl)-1H-pyrazol-4-yl)-3H-imidazo[4,5-b]pyridine], the IC50 in assay [1] was greater than 0.1 µM; in assay [2], greater than 1 µM; in assay [3], less than 0.1 µM; in assay [4], greater than 0.1 µM.
For the compound `O=C(Nc1ccncc1)Nc1ccc(-c2ccnc3[nH]c(=O)[nH]c23)cc1` [Example 1009, 1-(4-(2,3-dihydro-2-oxo-1H-imidazo[4,5-b]pyridin-7-yl)phenyl)-3-(pyridin-4-yl)urea], the IC50 is greater than 0.5 µM in assay [1], greater than 10 µM in assay [2], greater than 10 µM in assay [3] and greater than 1 µM in assay [4].
In the case of `CS(=O)(=O)COC(c1ccc(-n2cc(-c3ccnc4[nH]cnc34)cn2)nc1)C(F)(F)F` (centres unmarked) [Example 1140, 7-(1-(5-(1-((methylsulfonyl)methoxy)-2,2,2-trifluoroethyl)pyridin-2-yl)-1H-pyrazol-4-yl)-3H-imidazo[4,5-b]pyridine], the IC50 in assay [1] was less than 0.1 µM; in assay [2], greater than 1 µM; in assay [3], less than 0.1 µM; in assay [4], less than 0.1 µM.
For the compound `O=C1Cc2c(-c3cnn(C(=O)NCC(F)(F)F)c3)ccnc2N1` [Example 1045, N-(2,2,2-trifluoroethyl)-4-(2,3-dihydro-2-oxo-1H-pyrrolo[2,3-b]pyridin-4-yl)-1H-pyrazole-1-carboxamide], the IC50 in assay [1], in assay [2], in assay [3] and in assay [4] was greater than 1 µM in each case.
With `CC(CCS(C)(=O)=O)c1ccc(-n2cc(-c3ccnc4[nH]cnc34)cn2)nc1` (centres unmarked) [Example 1163, 7-(1-(5-(4-(methylsulfonyl)butan-2-yl)pyridin-2-yl)-1H-pyrazol-4-yl)-3H-imidazo[4,5-b]pyridine], the IC50 in assay [1] was greater than 0.5 µM; in assay [2], greater than 1 µM; in assay [3] it was greater than 0.5 µM; in assay [4], greater than 0.5 µM.
Consider `CS(=O)(=O)N1CCC(C(O)c2ccc(-n3cc(-c4ccnc5[nH]cnc45)cn3)nc2)CC1` (centres unmarked) [Example 1164, (6-(4-(3H-imidazo[4,5-b]pyridin-7-yl)-1H-pyrazol-1-yl)pyridin-3-yl)(1-(methylsulfonyl)piperidin-4-yl)methanol], for which the IC50 in assay [1], in assay [2], in assay [3] and in assay [4] was greater than 1 µM each time.
